Measurements from patent US20080096861A1, “Chemical Compounds” (SMITHKLINE BEECHAM CORPORATION, priority 2004, published 2008).
Like-named read-outs stand apart in the source and are kept apart here.

Columns and labels:
T-tropic HIV = details: patients dual tropic or with only T-tropic virus; cited from earlier work
HIV-1 IIIB = assay: HOS HIV-1 infectivity assay; assay type: cell-based
Procedure, shortened: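 HOS cells expressing hCXCR4/hCCR5/hCD4 with an HIV-LTR-luciferase reporter were seeded in DMEM with 2% FCS and cultured 24 h at 37 °C. Compound was added 1 h before virus (~2 million RLU/well), then incubated 96 h. Infection was read by Steady-Glo luciferase; viability of uninfected cultures by CellTiter-Glo.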

CXCR4 receptor = biological target: T1, CXCR4 receptor (Homo sapiens, UniProt P61073); assay: Functional FLIPR assay (block of SDF-1 alpha induced [Ca2+]i change); assay type: cell-based; details: HEK-293 cells, human CXCR4 BacMam and Gqi5 BacMam, read-out: Functional assay (pIC50) (converted)
T1 construct: expressed in transfected cells; host or cells: HEK-293 cells (stably expressing human macrophage scavenger receptor) transduced with human CXCR4 BacMam and Gqi5 BacMam
T1 sequence (P61073 whole entry): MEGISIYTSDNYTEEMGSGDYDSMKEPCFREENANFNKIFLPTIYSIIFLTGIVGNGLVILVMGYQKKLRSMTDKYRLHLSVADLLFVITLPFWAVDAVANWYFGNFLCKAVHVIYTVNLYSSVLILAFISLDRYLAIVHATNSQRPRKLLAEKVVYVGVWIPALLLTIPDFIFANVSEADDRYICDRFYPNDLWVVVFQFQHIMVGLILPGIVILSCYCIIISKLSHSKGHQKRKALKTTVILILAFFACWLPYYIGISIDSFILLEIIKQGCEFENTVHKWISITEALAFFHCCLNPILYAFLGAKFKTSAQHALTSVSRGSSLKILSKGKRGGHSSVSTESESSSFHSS
Method: Human embryonic kidney (HEK-293) cells were maintained and harvested as described above. Cells were plated in 96-well, black clear bottom, poly-lysine coated plates at a concentration of 40,000 cells per well in a final volume of 100 ul containing human CXCR4BacMam (MOI=25) and Gqi5 BacMam (MOI=12.5). The cells were incubated at 37° C., 5% CO2, 95% humidity for 24 h to allow for protein expression.
After the required incubation time the cells were washed once with 50 ul of fresh serum-free DMEM/F12 media containing probenicid. 50 ul of dye solution was then added to the cells (Calcium Plus Assay Kit Dye; Molecular Devices) was dissolved in 200 ml of the above probenicid/BSA containing media and incubated for 1 h. Cell plates were transferred to a Fluorometric Imaging Plate Reader (FLIPR). Upon addition the effect of the compounds on the change in [Ca^2+]i was examined to determine if the compounds were agonists or antagonists (ability to block SDF-1 alpha activity) at the CXCR4 receptor. IC50 values are determined and pKb values are calculated using the Leff and Dougall equation: KB═IC50/((2+([agonist]/EC50̂b)̂1/b−1) Where IC50 is that defined by the antagonist concentration-response curve [agonist)] is the EC80 concentration of agonist used EC50 is that defined by the agonist concentration-response curve b is the slope of the agonist concentration-response curve.

[1] = Compound cytotoxicity in HOS cells in the absence of virus (CellTiter-Glo); assay type: cell-based; details: human, no virus, read-out: Cytotox (pIC50) (converted)
Method: Compounds were profiled against two HIV-1 viruses, the M-tropic (CCR5 utilizing) Ba-L strain and the T-tropic (CXCR4 utilizing) IIIB strain. Both viruses were propagated in human peripheral blood lymphocytes. Compounds were tested for there ability to block infection of the HOS cell line (expressing hCXCR4/hCCR5/hCD4/pHIV-LTR-luciferase) by either HIV-1 Ba-L or HIV-1 IIIB. Compound cytotoxicity was also examined in the absence of virus addition.
HOS cells (expressing hCXCR4/hCCR5/hCD4/pHIV-LTR-luciferase) were harvested and diluted in Dulbeccos modified Eagles media supplemented with 2% FCS and non-essential amino acid to a concentration of 60,000 cells/ml. The cells were plated into 96-well plates (100 ul per well) and the plates were placed in a tissue culture incubator (37° C.; 5% CO2/95% air) for a period of 24 h.
Subsequently, 50 ul of the desired drug solution (4 times the final concentration) was added to each well and the plates were returned to the tissue culture incubator (37° C.; 5% CO2/95% air) for 1 h. Following this incubation 50 ul of diluted virus was added to each well (approximately 2 million RLU per well of virus). The plates were returned to the tissue culture incubator (37° C.; 5% CO2/95% air) and were incubated for a further 96 h.
Following this incubation the endpoint for the virally infected cultures was quantified following addition of Steady-Glo Luciferase assay system reagent (Promega, Madison, Wis.). Cell viability or non-infected cultures was measured using a CellTiter-Glo luminescent cell viability assay system (Promega, Madison, Wis.). All luminescent readouts are performed on a Topcount luminescence detector (Packard, Meridien, Conn.).

[2] = tested on: HIV-1 gp160 (HXB2 strain) mediated cell/cell fusion; assay: Cell/cell fusion assay (HOS hCXCR4/hCCR5/hCD4/pHIV-LTR-luciferase cells with HEK-293 cells expressing HIV-1 tat, rev, gp160), luciferase readout; assay type: cell-based; details: Homo sapiens, HEK293, 24 h, read-out: Fusion assay (pIC50) (converted)
Text: The complete coding sequences of HIV-1 tat (GenBank Accession No. X07861) and rev (GenBank Accession No. M34378) were cloned into pcDNA3.1 expression vectors containing G418 and hygromycin resistance genes, respectively. The complete coding sequence of the HIV-1 (HXB2 strain) gp160 envelope gene (nucleotide bases 6225-8795 of GenBank Accession No. K03455) was cloned into plasmid pCRII-TOPO. The three HIV genes were additionally inserted into the baculovirus shuttle vector, pFastBacMam1, under the transcriptional control of the CMV promoter. A construction of the pHIV-1 LTR containing mutated NFkB sequences linked to the luciferase reporter gene was prepared by digesting pcDNA3.1, containing the G418 resistance gene, with Nru I and Bam HI to remove the CMV promoter. LTR-luc was then cloned into the Nru I/Bam HI sites of the plasmid vector. Plasmid preparations were performed after the plasmids were amplified in Escherichia coli strain DH5-alpha. The fidelity of the inserted sequences was confirmed by double-strand nucleotide sequencing using an ABI Prism Model 377 automated sequencer.
Recombinant BacMam baculoviruses were constructed from pFastBacMam shuttle plasmids by using the bacterial cell-based Bac-to-Bac system. Viruses were propagated in Sf9 (Spodoptera frugiperda) cells cultured in Hink's TNM-FH Insect media supplemented with 10% (v/v) fetal bovine serum and 0.1% (v/v) pluronic F-68 according to established protocols.
Human osteosarcoma (HOS) cells that naturally express human CXCR4 were transfected with human CCR5, human CD4 and the pHIV-LTR-luciferase plasmid using FuGENE 6 transfection reagent. Single cells were isolated and grown under selection condition in order to generate a stable HOS (hCXCR4/hCCR5/hCD4/pHIV-LTR-luciferase) clonal cell line. The cells were maintained in Dulbeccos modified Eagles media supplemented with 10% fetal calf serum (FCS), G418 (400 ug/ml), puromycin (1 ug/ml), mycophenolic acid (40 ug/ml), xanthine (250 ug/ml) and hypoxanthine (13.5 ug/ml) to maintain a selection pressure for cells expressing the LTR-luciferase, hCCR5 and hCD4, respectively. Human embryonic kidney (HEK-293) cells stably transfected to express the human macrophage scavenging receptor (Class A, type 1; GenBank Accession No. D90187), were maintained in DMEM/F-12 media (1:1) supplemented with 10% FCS and 1.5 ug/ml puromycin. The expression of this receptor by the HEK-293 cells enhances their ability to stick to tissue culture treated plasticware.
HEK-293 cells were harvested using enzyme-free cell dissociation buffer. The cells were resuspended in DMEM/F-12 media supplemented with 10% FCS and 1.5 ug/ml and counted. Tranductions were performed by direct addition of BacMam baculovirus containing insect cell media to cells. The cells were simultaneously transduced with BacMam baculovirus expressing HIV-1 tat, HIV-1 rev and HIV-1 gp160 (from the HXB2 HIV strain). Routinely an MOI of 10 of each virus was added to the media containing the cells. 2 mM butyric acid was also added to the cells at this stage to increase protein expression in transduced cells. The cells were subsequently mixed and seeded into a flask at 30 million cells per T225. The cells were incubated at 37° C., 5% CO2, 95% humidity for 24 h to allow for protein expression.
HEK and HOS cells were harvested in DMEM/F-12 media containing 2% FCS and DMEM media containing 2% FCS, respectively, with no selection agents added. Compounds were plated as 1 ul spots in 100% DMSO on a 96-well CulturPlate plates. HOS cells (50 ul) were added first to the wells, followed immediately by the HEK cells (50 ul). The final concentration of each cell type was 20,000 cells per well. Following these additions, the cells were returned to a tissue culture incubator (37° C.; 5% CO2/95% air) for an additional 24 h.
Following the 24 h incubation, total cellular luciferase activity was measured using the LucLite Plus assay kit (Packard, Meridien, Conn.). […]

Row | SMILES | T-tropic HIV viral load (T-tropic HIV) | IC50 (HIV-1 IIIB; Human immunodeficiency virus 1, IIIB, as determined by the infectivity assay, strain not stated in Table 2, read-out: Activity Level) | IC50 (HIV-1 IIIB; Human immunodeficiency virus 1, T-tropic (CXCR4 utilizing) IIIB strain, HOS cells, 96 h, read-out: HOS (3B)) | IC50 (CXCR4 receptor) | IC50 at 96 h [1] | IC50 [2]
1 | c1cc(CN2CCCNCCNCCCNCC2)ccc1CN1CCCNCCNCCCNCC1 [AMD-3100] | significantly reduce T-tropic HIV viral load | – | – | – | – | –
2 | CN1CCN(CCCn2c(CN(C)C3CCCc4cccnc43)nc3ccccc32)CC1 (stereo not drawn) [Example 9, N-Methyl-N-({1-[3-(4-methyl-1-piperazinyl)propyl]-1H-benzimidazol-2-yl}methyl)-5,6,7,8-tetrahydro-8-quinolinamine] | – | < 100 nM | 93 nM | 135 nM | > 100000 nM | 166 nM
